The text below walks through data of patent US10301270B2, “Compositions and methods for quadricyclane modification of biomolecules” (The Regents of the University of California, priority 2011, dated 2019).

Holding throughout (type): physicochemical
Data set [1] in a line: Prevention of photo-degradation of complex 3 by diethyldithiocarbamate (UV/Vis/NIR). Particulars: 200 μM 3, 1.25 mM 5, 3:1 CH3CN/H2O, 20 h ambient light. The method, then:
A solution containing 200 μM 3 and 0 (red) or 1.25 (green) mM 5 in 3:1 CH3CN/H2O was prepared and left in ambient light continually. A. UV/Vis/NIR spectra of the described solutions taken before being exposed to light. B. UV/Vis/NIR spectra of the described solutions taken after 20 h of exposure to light. The red line contains little absorbance due to the low solubility of 2 in acetonitrile. If 2 is reduced to the anionic state by cysteine (1.25 mM, blue line) solubility in acetonitrile is improved and evidence of photodegradation can be seen. The diethyldithiocarbamate treated sample remains unaltered after exposure to light indicating no photodegradation occurred.

A short description of data set [2]: Photo-lability of complex 3 in ambient light (NMR, UV/Vis/NIR). Particulars: CDCl3 solution in an NMR tube. How it is done:
Complex 3 (2.2 mg) was dissolved in CDCl3 (˜0.75 mL) and placed in an NMR tube on the bench continually exposed to ambient light. NMR spectra were periodically obtained. The asterisks indicate the chemical shifts for 7-acetoxy norbornadiene (4). At the 36 h time point, there is a 1:1.1 ratio of 3:4 as judged by integration of the olefin peaks.
Using an NMR assay degradation of 3 over the first few hours is not evident. However, using UV/Vis/NIR spectroscopy, which has greater sensitivity than NMR, the formation of 2 from 3 is evident at early timepoints. A solution of 3 was prepared in CH3CN and left in ambient light. A UV/Vis/NIR spectrum was obtained every 15 min. The NIR absorption band at 855 nm characteristic of 2 is growing in, while the small hump centered at ˜400 nm characteristic of […] is decreasing. The absorption band at 350 nm is also increasing in intensity.

Data set [3] is described as follows: Solubility and reactivity of bis(dithiobenzil)nickel(II) 2.
Data set [4] can be described thus: Stability of quadricyclane 1 to cysteine and other biological nucleophiles, BSA and cell culture media. The method, then:
7-acetoxy quadricyclane (1, 2 mg) was dissolved in 0.4 mL of CD3CN. To this solution, 0.4 mL of deuterated PBS and 3 mg of cysteine were added. The NMR spectrum above was taken 2.5 months after the described solution was prepared.

Data set [5] can be described thus: Stability of 7-acetoxy quadricyclane 1 in PBS (NMR). Particulars: room temperature, more than 2 months (NMR taken 2.5 months after preparation, CD3CN/deuterated PBS). The method, then: 7-acetoxy quadricyclane (1, 2 mg) was dissolved in 0.4 mL of CD3CN. To this solution, 0.4 mL of deuterated PBS was added. The NMR spectrum above was taken 2.5 months after the described solution was prepared.

Entries after “also recorded” stand apart in the source; their conditions may differ. Read-outs that look alike come from different tables or passages of the source.

With `CCN(CC)C(=S)S` [Compound 5, diethyldithiocarbamate], in data set [1], the “Effect on photo-degradation of complex 3” value was “prevented”.
On to `CC(=O)OC1C2C=CC1C1C2[S]2=[Ni]3(=[S]1C(c1ccccc1)=C(c1ccccc1)[S]3)[S]C(c1ccccc1)=C2c1ccccc1` (stereo not drawn) [Complex 3], for which the half-life at 2.9 mg/mL is 34.8 h in data set [2] (NMR, read-out: Calculated half-life of photo-degradation based on all integration data (converted)) and roughly 35 h in data set [2] (read-out: Half-life of the light-induced reversion (converted)).
On to `S=C(C(=S)c1ccccc1)c1ccccc1.S=C(C(=S)c1ccccc1)c1ccccc1.[Ni]` [Compound 2, Bis(dithiobenzil)nickel(II)], for which the Solubility in acetonitrile entry in data set [3] (acetonitrile) was “low”. The “Reactivity with a variety of nucleophiles” value in data set [3] (in dichloromethane) is given as “unreactive”. In addition, in data set [3] (polar solvents), the “Solubility in polar solvents” value was “limited”.
`CC(=O)OC1C2C3C2C2C1C32` (stereo not drawn) [Compound 1, 7-acetoxy Quadricyclane]: in data set [4] (conditions emulating metabolic labeling experiments), the “Stability in the presence of bovine serum albumin (BSA) and cell culture media” value was “stable”. In addition, the “Reactivity with sugars, oxidants and free amino acids, most notably cysteine” value in data set [4] (cysteine: CD3CN/deuterated PBS, NMR after 2.5 months) is given as “stable; also recorded: unreactive”. Also, in data set [5], the “Stability in phosphate buffered saline (PBS, pH 7.4)” value was “stable; also recorded: no degradation observed”.
